What all share (assay type): biochemical
One test has as its target T1, ALDH2*1/*2 (Homo sapiens, UniProt P05091, E504K).
T1 construct: His-tag; made in house; host or cells: E. coli BL21 (pETDuet-1 co-expression)
T1 sequence (P05091 18-517): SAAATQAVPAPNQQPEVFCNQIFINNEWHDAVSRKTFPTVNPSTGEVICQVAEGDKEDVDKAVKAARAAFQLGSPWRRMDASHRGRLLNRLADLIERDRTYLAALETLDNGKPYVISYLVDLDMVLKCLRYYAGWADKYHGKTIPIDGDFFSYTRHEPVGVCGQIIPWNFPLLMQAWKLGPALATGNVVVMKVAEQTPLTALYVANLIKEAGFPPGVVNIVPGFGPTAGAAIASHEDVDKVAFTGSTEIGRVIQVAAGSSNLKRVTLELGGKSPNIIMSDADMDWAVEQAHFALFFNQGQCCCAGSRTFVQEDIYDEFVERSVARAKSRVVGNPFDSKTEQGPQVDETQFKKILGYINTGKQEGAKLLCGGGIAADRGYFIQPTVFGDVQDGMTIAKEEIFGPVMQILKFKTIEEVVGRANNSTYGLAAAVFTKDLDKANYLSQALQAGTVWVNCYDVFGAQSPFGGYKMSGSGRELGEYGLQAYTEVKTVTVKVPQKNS
T1 sequence (P05091 18-517 E504K): T1 sequence (P05091 18-517) with E487K
Kind of test: ALDH2 enzymatic activity, NADH accumulation at 340 nm, acetaldehyde substrate, heterozygous form. The note with it: relative to baseline enzymatic activity (100%); for activity at 2.5 µM: 2.5 μM compound; for activity at 5 µM: 5 μM compound; for activity at 10 µM: 10 μM compound; for activity at 20 µM: 20 μM compound. On the procedure:
(§1) ALDH2 catalyzes the oxidative reaction of substrate acetaldehyde to acetic acid using NAD^+ as a cofactor. Enzymatic activity, or catalytic rate, of aldehyde dehydrogenase (ALDH2) are measured spectrophotometrically at UV wavelength λ340 nm by the accumulation of reduced product NADH derived from NAD^+. Absorbance at λ340 nm is quantitatively proportional to the amount of NADH being produced over time (6.22 O.D. unit=1 mmol of NADH, measured in a 1-cm width standard cuvette). This method is well-established in the literature [e.g. Rex et al., Alcohol Clin. Exp. Res. 9, 147 (1985)].
(§2) ALDH2 catalyzes the oxidative reaction of substrate acetaldehyde to acetic acid using NAD^+ as a cofactor. Enzymatic activity, or catalytic rate, of aldehyde dehydrogenase (ALDH2) can be measured spectrophotometrically at UV wavelength λ340 nm by the accumulation of reduced product NADH derived from NAD^+. Absorbance at λ340 nm is quantitatively proportional to the amount of NADH being produced over time (6.22 O.D. unit=1 mmol of NADH, measured in a 1-cm width standard cuvette). This method is well-established in the literature [e.g. Rex et al., Alcohol Clin. Exp. Res. 9, 147 (1985)].
(§3) Cloning, expression and purification of human ALDH2 wild type and ALDH2*2 recombinant mutant enzymes: Full-length wild type human ALDH2 cDNA was purchased from ATCC (No. MGC-1806. GenBank ID: BC002967). The 18-amino acid mitochondria transport signal sequence was removed by PCR and cloned into the NheI/HindIII sites of a His-tag vector, pTrcHis, using standard molecular cloning techniques. The human ALDH2* cDNA construct containing the Asian E487K mutation was obtained by site-directed mutagenesis to create the E487K substitution of the wild type ALDH2. Both human clones were designed to express a recombinant protein with the His-tag at the N-terminus of the protein. For the co-expression experiments of human ALDH2 wild type and ALDH2*2 heterotetramers, a wild type ALDH2 gene and a ALDH2 E487K gene were inserted separately into the two multiple cloning sites of pETDuet-1 vector. (Novagen, CA, USA). All the vectors were transformed into BL21 E. coli host cells and subjected to 0.5 mM IPTG induction for protein expression at 30° C. Purifications of the recombinant proteins by affinity nickel columns (HisTrap, GE Healthy Science, USA) were carried out using standard protocols according to manufacturer's instructions (Novagen, USA).
(§4) ALDH2 catalyzes the oxidative reaction of substrate acetaldehyde to acetic acid using NAD^+ as a cofactor. Enzymatic activity, or catalytic rate, of aldehyde dehydrogenase (ALDH2) can be measured spectrophotometrically at UV wavelength λ340 nm by the accumulation of reduced product NADH derived from NAD^+. Because compounds of formula (I) are considered to be agonists or “activators” of ALDH2 the enzymatic activity measured will exceed 100% of the baseline enzymatic activity of the enzyme in its normal activation state. As the concentration of the compounds of formula (I) decreases from 20 micromolar to 0.16 micromolar in the presence of ALDH, a decrease in the activation of enzymatic activity is observed for the wild-type ALDH2*1/*1 and the heterozygous form ALDH2*1/*2.

The next test addresses T2, ALDH2 (Homo sapiens, UniProt P05091).
T2 construct: His-tag (N); made in house; host or cells: E. coli BL21
T2 sequence (P05091 18-517): T1 sequence (P05091 18-517)
Briefly: ALDH2 activity with 20 μM of the compound (Table 3). The note with it: 20 μM compound. The method, then:
as §1, §2, §4

The target of another test is T3, ALDH2*1/*1 (Homo sapiens, UniProt P05091).
T3 construct: His-tag (N); made in house; host or cells: E. coli BL21 (pTrcHis vector)
T3 sequence (P05091 18-517): T1 sequence (P05091 18-517)
Kind of test: ALDH2 enzymatic activity, NADH accumulation at 340 nm, acetaldehyde substrate, wild type. The note with it: relative to baseline enzymatic activity (100%); for activity at 2.5 µM: 2.5 μM compound; for activity at 5 µM: 5 μM compound; for activity at 10 µM: 10 μM compound; for activity at 20 µM: 20 μM compound. The method, then:
as §1, §2, §3, §4

Positions count from the first letter of the chain named.

For `COc1ccc(CNC(=O)c2cc(-c3ccncc3CO)ccc2OCC2CC2)cc1F` [AC9], on ALDH2*1/*2, the activity at 2.5 µM was determined as 224%, the activity at 5 µM worked out at 287%, the activity at 10 µM was found to be 317% and the activity at 20 µM was found to be 402%. Moreover, the activity at 20 µM on ALDH2 is greater than 250%. At ALDH2*1/*1, the activity at 2.5 µM worked out at 218%, the activity at 5 µM turned out to be 276%, the activity at 10 µM came to 354% and the activity at 20 µM turned out to be 376%.
Turning to `COc1ccc(CNC(=O)c2cc(-c3ccccc3CO)cnc2OCC2CC2)cc1F` [AC1, 2-(cyclopropylmethoxy)-N-(3-fluoro-4-methoxybenzyl)-5-(2-(hydroxymethyl)phenyl)nicotinamide], at ALDH2*1/*2, the activity at 2.5 µM was found to be 220%, the activity at 5 µM stood at 294%, the activity at 10 µM stood at 383% and the activity at 20 µM worked out at 453%. In addition, the activity at 20 µM on ALDH2 was greater than 250%. For the same compound, at ALDH2*1/*1, the activity at 2.5 µM amounted to 175%, the activity at 5 µM turned out to be 242%, the activity at 10 µM is 288% and the activity at 20 µM was 412%.
Regarding `COc1ccc(CNC(=O)c2cc(-c3cnccc3CO)cnc2OCC2CC2)cc1F` [AC10], at ALDH2*1/*2, the activity at 2.5 µM is 239%, the activity at 5 µM stood at 321%, the activity at 10 µM stood at 388% and the activity at 20 µM was 531%. The activity at 20 µM at ALDH2 was greater than 250%. Further, at ALDH2*1/*1, the activity at 2.5 µM turned out to be 172%, the activity at 5 µM came to 238%, the activity at 10 µM turned out to be 346% and the activity at 20 µM turned out to be 414%.
Consider `COc1ccc(CNC(=O)c2cc(-c3c[n+]([O-])ccc3CO)ccc2OCC2CC2)cc1F` [AC13], for which, on ALDH2*1/*2, the activity at 2.5 µM turned out to be 146%, the activity at 5 µM is 195%, the activity at 10 µM was found to be 247% and the activity at 20 µM worked out at 296%. The activity at 20 µM at ALDH2 is 150 to 250%. Besides, at ALDH2*1/*1, the activity at 2.5 µM stood at 164%, the activity at 5 µM was found to be 168%, the activity at 10 µM came out at 215% and the activity at 20 µM was determined as 237%.
Regarding `COc1ccc(CNC(=O)c2cc(-c3cccnc3CO)ccc2OCC2CC2)cc1F` [AC7], on ALDH2*1/*2, the activity at 2.5 µM amounted to 176%, the activity at 5 µM amounted to 244%, the activity at 10 µM is 291% and the activity at 20 µM was found to be 434%. In addition, the activity at 20 µM on ALDH2 was greater than 250%. Also, on ALDH2*1/*1, the activity at 2.5 µM came to 133%, the activity at 5 µM came out at 181%, the activity at 10 µM stood at 266% and the activity at 20 µM was found to be 331%.
For the compound `COc1ccc(CNC(=O)c2cc(-c3cccc(F)c3CO)ccc2OCC2CC2)cc1F` [AC21], on ALDH2*1/*2, the activity at 2.5 µM came to 110%, the activity at 5 µM was determined as 198%, the activity at 10 µM worked out at 247% and the activity at 20 µM was 250%. In addition, the activity at 20 µM on ALDH2 was greater than 250%. Also, on ALDH2*1/*1, the activity at 2.5 µM came out at 161%, the activity at 5 µM turned out to be 209%, the activity at 10 µM came out at 272% and the activity at 20 µM is 370%.
With `COc1ccc(CNC(=O)c2cc(-c3cscc3CO)cnc2OCC2CC2)cc1F` [AC24], at ALDH2*1/*2, the activity at 2.5 µM came to 149%, the activity at 5 µM stood at 234%, the activity at 10 µM is 269% and the activity at 20 µM stood at 216%. Also, the activity at 20 µM at ALDH2 is greater than 250%. On ALDH2*1/*1, the activity at 2.5 µM stood at 175%, the activity at 5 µM was 248%, the activity at 10 µM stood at 321% and the activity at 20 µM was 428%.
Take `COc1ccc(CNC(=O)c2cc(-c3cc(F)ccc3CO)ccc2OCC2CC2)cc1F` [AC17]: at ALDH2*1/*2, the activity at 2.5 µM is 156%, the activity at 5 µM is 173%, the activity at 10 µM came to 176% and the activity at 20 µM came out at 195%. For the same compound, the activity at 20 µM at ALDH2 was greater than 250%. Further, at ALDH2*1/*1, the activity at 2.5 µM is 229%, the activity at 5 µM worked out at 262%, the activity at 10 µM is 340% and the activity at 20 µM came out at 318%.
Turning to `COc1ccc(CNC(=O)c2cc(-c3c(CO)cccc3N(C)C)ccc2OCC2CC2)cc1F` [AC16], on ALDH2*1/*2, the activity at 2.5 µM amounted to 104%, the activity at 5 µM is 116%, the activity at 10 µM worked out at 126% and the activity at 20 µM came out at 138%. For the same compound, the activity at 20 µM on ALDH2 is 100 to 150%. On ALDH2*1/*1, the activity at 2.5 µM was 106%, the activity at 5 µM was found to be 106%, the activity at 10 µM is 105% and the activity at 20 µM amounted to 133%.
As for `COc1ccc(CNC(=O)c2cc(-c3cc(F)ccc3CO)cnc2OCC2CC2)cc1F` [AC20], at ALDH2*1/*2, the activity at 2.5 µM came out at 157%, the activity at 5 µM stood at 218%, the activity at 10 µM worked out at 255% and the activity at 20 µM worked out at 93%. At ALDH2, the activity at 20 µM is greater than 250%. For the same compound, at ALDH2*1/*1, the activity at 2.5 µM came to 170%, the activity at 5 µM turned out to be 238%, the activity at 10 µM was determined as 308% and the activity at 20 µM stood at 403%.
For `COc1ccc(CNC(=O)c2cc(-c3ccc(F)cc3CO)cnc2OCC2CC2)cc1F` [AC4], at ALDH2*1/*2, the activity at 2.5 µM stood at 266%, the activity at 5 µM came out at 338%, the activity at 10 µM turned out to be 390% and the activity at 20 µM turned out to be 423%. In addition, the activity at 20 µM on ALDH2 was greater than 250%. Besides, on ALDH2*1/*1, the activity at 2.5 µM amounted to 204%, the activity at 5 µM is 280%, the activity at 10 µM worked out at 300% and the activity at 20 µM came out at 363%.
As for `COc1ccc(CNC(=O)c2cc(-c3c(CO)cccc3N(C)C)cnc2OCC2CC2)cc1F` [AC15], at ALDH2*1/*2, the activity at 2.5 µM amounted to 105%, the activity at 5 µM is 129%, the activity at 10 µM was found to be 160% and the activity at 20 µM worked out at 203%. In addition, at ALDH2, the activity at 20 µM lay in the range of 150 to 250%. For the same compound, on ALDH2*1/*1, the activity at 2.5 µM came out at 124%, the activity at 5 µM is 106%, the activity at 10 µM turned out to be 143% and the activity at 20 µM came out at 169%.

The record behind these values is patent publication US9879036B2, “Mitochondrial aldehyde dehydrogenase-2 binding compounds and methods of use thereof” (Aviv Therapeutics, Inc., priority 2014, dated 2018).
